Assay results published in patent publication US7935670B2, “Hepatitis C virus inhibitors” (Bristol-Myers Squibb Company, priority 2006, dated 2011).
Where two headings read alike, the source gives them in different places.

Experiments:
[1] = biological target: T1, HCV NS3/4A protease complex, BMS strain (UniProt P27958, species not given/STRAIN_BMS); experiment: FRET peptide assay to monitor HCV NS3/4A proteolytic activity (BMS strain); assay type: biochemical, HCV genotype 1a
T1 construct: given for H77 and J4L6S, not expressly for BMS; fused on or other part: three-lysine solubilising tail at the end of NS4A (given for the H77 and J4L6S constructs)
T1 sequence (P27958 1027-1657, change not shown, one chain of several): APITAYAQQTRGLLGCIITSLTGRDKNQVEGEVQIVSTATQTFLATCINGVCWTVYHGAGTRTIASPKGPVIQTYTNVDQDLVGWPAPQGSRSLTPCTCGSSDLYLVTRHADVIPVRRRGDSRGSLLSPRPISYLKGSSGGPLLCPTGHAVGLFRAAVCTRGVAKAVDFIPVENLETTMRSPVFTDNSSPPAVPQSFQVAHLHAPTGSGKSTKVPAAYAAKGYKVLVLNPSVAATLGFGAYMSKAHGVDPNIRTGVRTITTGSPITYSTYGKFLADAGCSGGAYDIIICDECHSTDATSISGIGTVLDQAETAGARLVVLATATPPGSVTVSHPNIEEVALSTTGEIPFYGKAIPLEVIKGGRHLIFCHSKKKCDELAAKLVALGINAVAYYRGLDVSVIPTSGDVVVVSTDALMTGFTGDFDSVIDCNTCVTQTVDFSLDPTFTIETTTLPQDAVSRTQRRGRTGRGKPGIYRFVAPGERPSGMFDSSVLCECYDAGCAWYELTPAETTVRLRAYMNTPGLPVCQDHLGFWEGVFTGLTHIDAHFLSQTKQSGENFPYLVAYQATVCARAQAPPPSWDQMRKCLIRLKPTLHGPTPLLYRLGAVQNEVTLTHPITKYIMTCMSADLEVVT
Text: HCV NS3 protease complexes, derived from the BMS strain, H77 strain or J4L6S strain, were generated, as described below. These purified recombinant proteins were generated for use in a homogeneous assay (see below) to provide an indication of how effective compounds of the present disclosure would be in inhibiting HCV NS3 proteolytic activity.
Serum from an HCV-infected patient was obtained from Dr. T. Wright, San Francisco Hospital. An engineered full-length cDNA (compliment deoxyribonucleic acid) template of the HCV genome (BMS strain) was constructed from DNA fragments obtained by reverse transcription-PCR(RT-PCR) of serum RNA (ribonucleic acid) and using primers selected on the basis of homology between other genotype 1a strains. From the determination of the entire genome sequence, a genotype 1a was assigned to the HCV isolate according to the classification of Simmonds et al. (See P Simmonds, K A Rose, S Graham, S W Chan, F McOmish, B C Dow, E A Follett, P L Yap and H Marsden, J. Clin. Microbiol., 31(6), 1493-1503 (1993)). […] The infectious clones, H77 (1a genotype) and J4L6S (1b genotype) were obtained from R. Purcell (NIH) and the sequences are published in Genbank (AAB67036, see Yanagi, M., Purcell, R. H., Emerson, S. U. and Bukh, J. Proc. Natl. Acad. Sci. U.S.A. 94(16), 8738-8743 (1997); AF054247, see Yanagi, M., St Claire, M., Shapiro, M., Emerson, S. U., Purcell, R. H. and Bukh, J, Virology 244 (1), 161-172. (1998)).
NS3/4A protease complex-containing fractions were pooled and loaded on a desalting column Superdex-S200 pre-equilibrated with buffer D (25 mM HEPES, pH 7.5, 20% glycerol, 300 mM NaCl, 0.2% Triton X-100, 10 mM βME). Sample was loaded at a flow rate of 1 mL/min. NS3/4A protease complex-containing fractions were pooled and concentrated to approximately 0.5 mg/ml. The purity of the NS3/4A protease complexes, derived from the BMS, H77 and J4L6S strains, were judged to be greater than 90% by SDS-PAGE and mass spectrometry analyses. The enzyme was stored at −80° C., thawed on ice and diluted prior to use in assay buffer.
The purpose of this in vitro assay was to measure the inhibition of HCV NS3 protease complexes, derived from the BMS strain, H77 strain or J4L6S strain, as described above, by compounds of the present disclosure. This assay provides an indication of how effective compounds of the present disclosure would be in inhibiting HCV NS3 proteolytic activity.
In order to monitor HCV NS3/4A protease activity, an NS3/4A peptide substrate was used. The substrate was RET S1 (Resonance Energy Transfer Depsipeptide Substrate; AnaSpec, Inc. cat #22991)(FRET peptide), described by Taliani et al. in Anal. Biochem. 240(2):60-67 (1996). The sequence of this peptide is loosely based on the NS4A/NS4B natural cleavage site for the HCV NS3 protease except there is an ester linkage rather than an amide bond at the cleavage site. The peptide also contains a fluorescence donor, EDANS, near one end of the peptide and an acceptor, DABCYL, near the other end. The fluorescence of the peptide is quenched by […] resonance energy transfer (RET) between the donor and the acceptor, but as the NS3 protease cleaves the peptide the products are released from RET quenching and the fluorescence of the donor becomes apparent.
The peptide substrate was incubated with one of the three recombinant NS3/4A protease complexes, in the absence or presence of a compound of the present disclosure. The inhibitory effects of a compound were determined by monitoring the formation of fluorescent reaction product in real time using a Cytofluor Series 4000.
Assay buffer: 50 mM HEPES, pH 7.5; 0.15 M NaCl; 0.1% Triton; 15% Glycerol; 10 mM βME. Substrate: 2 μM final concentration (from a 2 mM stock solution in DMSO stored at −20° C.). HCV NS3/4A protease type 1a (1b), 2-3 nM final concentration (from a 5 μM stock solution in 25 mM HEPES, pH 7.5, 20% glycerol, 300 mM NaCl, 0.2% Triton-X100, 10 mM βME). […]

human liver cathepsin B = biological target: T2, human liver cathepsin B (Homo sapiens, UniProt P07858); experiment: Specificity assay, cathepsin B; assay type: biochemical; settings: 2 h enzyme-inhibitor pre-incubation
T2 construct: purchased Sigma; host or cells: human liver (by name)
Description: The specificities of compounds of the present disclosure were determined against a variety of serine proteases: human neutrophil elastase (HNE), porcine pancreatic elastase (PPE) and human pancreatic chymotrypsin and one cysteine protease: human liver cathepsin B. In all cases a 96-well plate format protocol using colorimetric p-nitroaniline (pNA) substrate specific for each enzyme was used as described previously (PCT Patent Application No. WO 00/09543) with some modifications to the serine protease assays. All enzymes were purchased from Sigma while the substrates were from Bachem.
Each assay included a 2 h enzyme-inhibitor pre-incubation at room temperature followed by addition of substrate and hydrolysis to ˜30% conversion as measured on a Spectramax Pro microplate reader. Compound concentrations varied from 100 to 0.4 μM depending on their potency.
100 mM NaHPO4 (Sodium Hydrogen Phosphate) pH 6, 0.1 mM EDTA, 3% DMSO, 1 mM TCEP (Tris(2-carboxyethyl)phosphine hydrochloride), 0.01% Tween-20, 30 μM Z-FR-pNA and 5 nM Cathepsin B (enzyme stock activated in buffer containing 20 mM TCEP before use).
The percentage of inhibition was calculated using the formula: [1−((UVinh−UVblank)/(UVctl−UVblank))]×100
A non-linear curve fit was applied to the inhibition-concentration data, and the 50% effective concentration (IC50) was calculated by the use of Excel Xl-fit software.

C=C[C@@H]1C[C@]1(NC(=O)[C@@H]1C[C@@H](OC(=O)c2ccccc2)CN1C(=O)[C@@H](NC(=O)OC(C)(C)C)C(C)(C)C)C(=O)NS(=O)(=O)C1CC1 [Compound 1]
IC50 ([1]; read-out: Activity Range (IC50), NS3/4A BMS strain): 1 to 50 nM | IC50 ([1]; read-out: IC50 against the NS3/4A BMS strain in the enzyme assay, BMS strain): 13 nM | IC50 (human liver cathepsin B): > 50000 nM
